US20230092890A1, “1, 3, 4-Oxadiazole derivative compounds as histone deacetylase 6 inhibitor, and the pharmaceutical composition comprising the same” (Chong Kun Dang Pharmaceutical Corp., priority 2019, published 2023)
pIC50: −log10 of the molar value.

Assays:
HDAC6 human recombinant = molecular target: T1, HDAC6 human recombinant (Homo sapiens, UniProt Q9UBN7); assay: HDAC enzyme activity inhibition (in vitro), HDAC6 assay; type: biochemical; conditions: samples at 0.1, 1, 10, 100 and 1000 nM; 37° C. 60 minutes; fluorescence Ex 390, Em 460; read-out: HDAC6 IC50
T1 construct: purchased Calbiochem 382180
T1 sequence (Q9UBN7 1-1215): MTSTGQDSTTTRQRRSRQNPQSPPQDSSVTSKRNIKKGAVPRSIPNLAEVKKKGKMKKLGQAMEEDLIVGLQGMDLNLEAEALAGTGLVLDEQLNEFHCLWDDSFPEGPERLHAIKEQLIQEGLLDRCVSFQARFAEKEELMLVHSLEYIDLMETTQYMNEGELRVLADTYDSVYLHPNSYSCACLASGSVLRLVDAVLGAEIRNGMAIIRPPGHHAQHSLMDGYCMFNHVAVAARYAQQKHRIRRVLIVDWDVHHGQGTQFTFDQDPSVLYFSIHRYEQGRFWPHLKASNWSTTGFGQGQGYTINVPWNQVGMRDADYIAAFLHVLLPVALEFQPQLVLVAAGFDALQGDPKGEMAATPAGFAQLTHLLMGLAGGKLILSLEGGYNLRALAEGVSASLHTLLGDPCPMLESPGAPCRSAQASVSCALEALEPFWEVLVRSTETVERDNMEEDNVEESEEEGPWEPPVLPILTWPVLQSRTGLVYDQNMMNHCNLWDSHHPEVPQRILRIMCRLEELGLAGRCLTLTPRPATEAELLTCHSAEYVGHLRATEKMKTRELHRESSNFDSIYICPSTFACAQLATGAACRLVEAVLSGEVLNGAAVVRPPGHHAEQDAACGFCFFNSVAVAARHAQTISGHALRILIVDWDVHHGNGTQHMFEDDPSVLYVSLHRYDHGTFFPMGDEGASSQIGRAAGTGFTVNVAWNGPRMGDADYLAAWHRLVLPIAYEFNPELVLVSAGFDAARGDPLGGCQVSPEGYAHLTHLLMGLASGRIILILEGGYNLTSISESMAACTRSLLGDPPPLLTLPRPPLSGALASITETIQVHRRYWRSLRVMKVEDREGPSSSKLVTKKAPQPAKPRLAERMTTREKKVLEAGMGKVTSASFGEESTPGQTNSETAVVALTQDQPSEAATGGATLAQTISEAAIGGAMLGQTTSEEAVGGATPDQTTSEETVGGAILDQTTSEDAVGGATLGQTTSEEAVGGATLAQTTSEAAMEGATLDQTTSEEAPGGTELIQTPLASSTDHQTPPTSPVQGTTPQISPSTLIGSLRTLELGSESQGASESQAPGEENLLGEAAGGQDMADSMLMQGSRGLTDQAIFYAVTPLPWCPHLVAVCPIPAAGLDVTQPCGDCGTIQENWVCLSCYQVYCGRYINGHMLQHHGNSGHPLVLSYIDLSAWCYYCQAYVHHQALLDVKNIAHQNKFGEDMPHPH
Method: A HDAC enzyme inhibitory capacity of a test material was measured by using HDAC1 Fluorimetric Drug Discovery Assay Kit (Enzolifesciences: BML-AK511) and HDAC6 human recombinant (Calbiochem: 382180). For a HDAC1 assay, samples were treated at a concentration of 100, 1000 and 10000 nM. […] After the above sample treatment, a reaction was continued at 37° C. for 60 minutes, then treated with a developer, and then subjected to a reaction at 37° C. for 30 minutes, after which fluorescence intensity (Ex 390, Em 460) was measured by using FlexStatin3 (Molecular device).

HDAC1 = molecular target: T2, HDAC1 (Homo sapiens, UniProt Q13547); assay: HDAC enzyme activity inhibition (in vitro), HDAC1 Fluorimetric Drug Discovery Assay Kit; type: biochemical; conditions: samples at 100, 1000 and 10000 nM; 37° C. 60 minutes; fluorescence Ex 390, Em 460; read-out: HDAC1 IC50
T2 construct: purchased Enzolifesciences BML-AK511
Method: <Experimental Example 1> Identification of HDAC Enzyme Activity Inhibition (In Vitro)
A selective HDAC6 inhibitor is important for selectivity of HDAC1 inhibition, which is a cause of side effects, and thus HDAC1/6 enzyme selectivity and cell selectivity (HDAC1: histone acetylation/HDAC6: tubulin acetylation) were identified.
A HDAC enzyme inhibitory capacity of a test material was measured by using HDAC1 Fluorimetric Drug Discovery Assay Kit (Enzolifesciences: BML-AK511) and HDAC6 human recombinant (Calbiochem: 382180). For a HDAC1 assay, samples were treated at a concentration of 100, 1000 and 10000 nM. For a HDAC6 assay, samples were treated at a concentration of 0.1, 1, 10, 100 and 1000 nM. After the above sample treatment, a reaction was continued at 37° C. for 60 minutes, then treated with a developer, and then subjected to a reaction at 37° C. for 30 minutes, after which fluorescence intensity (Ex 390, Em 460) was measured by using FlexStatin3 (Molecular device).

T2 sequence (Q13547 whole entry): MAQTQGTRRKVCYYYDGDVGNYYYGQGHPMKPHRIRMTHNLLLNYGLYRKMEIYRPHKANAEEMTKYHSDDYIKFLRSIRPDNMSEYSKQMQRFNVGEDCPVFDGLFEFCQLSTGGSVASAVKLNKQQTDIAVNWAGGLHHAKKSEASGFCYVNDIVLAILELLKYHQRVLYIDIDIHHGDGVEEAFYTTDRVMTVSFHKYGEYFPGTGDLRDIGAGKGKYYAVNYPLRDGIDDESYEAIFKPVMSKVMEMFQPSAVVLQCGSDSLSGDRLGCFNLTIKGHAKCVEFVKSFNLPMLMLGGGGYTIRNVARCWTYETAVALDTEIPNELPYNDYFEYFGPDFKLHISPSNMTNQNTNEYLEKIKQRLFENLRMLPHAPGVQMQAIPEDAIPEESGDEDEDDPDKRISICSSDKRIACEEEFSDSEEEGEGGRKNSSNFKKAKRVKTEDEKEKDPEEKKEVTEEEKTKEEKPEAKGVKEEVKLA

Structure (SMILES)	pIC50 (HDAC6 human recombinant)	pIC50 (HDAC1)
O=c1n(Cc2ccc(-c3nnc(C(F)F)o3)cc2F)c2ccccc2n1C1CCN(C2COC2)CC1 [Compound 16, 1-(4-(5-(difluoromethyl)-1,3,4-oxadiazole-2-yl)-2-fluorobenzyl)-3-(1-(oxetan-3-yl)piperidine-4-yl)-1,3-dihydro-2H-benzo[d]imidazole-2-one]	6.62	< 5.00
CC(=O)N1CCC(n2c(=O)n(Cc3ccc(-c4nnc(C(F)F)o4)cc3F)c3ccccc32)CC1 [Compound 17, 1-(1-acetylpiperidine-4-yl)-3-(4-(5-(difluoromethyl)-1,3,4-oxadiazole-2-yl)-2-fluorobenzyl)-1,3-dihydro-2H-benzo[d]imidazole-2-one]	6.67	< 5.00
CS(=O)(=O)N1CCC(n2c(=O)n(Cc3ccc(-c4nnc(C(F)F)o4)cc3F)c3ccccc32)CC1 [Compound 18, 1-(4-(5-(difluoromethyl)-1,3,4-oxadiazole-2-yl)-2-fluorobenzyl)-3-(1-(methylsulfonyl)piperidine-4-yl)-1,3-dihydro-2H-benzo[d]imidazole-2-one]	6.57	< 5.00
O=c1n(Cc2ccc(-c3nnc(C(F)F)o3)cc2F)c2ccccc2n1C1CCN(Cc2cccc3cc[nH]c23)CC1 [Compound 19, 1-(1-((1H-indole-7-yl)methyl)piperidine-4-yl)-3-(4-(5-(difluoromethyl)-1,3,4-oxadiazole-2-yl)-2-fluorobenzyl)-1,3-dihydro-2H-benzo[d]imidazole-2-one]	5.62	< 5.00
CN1CCC(n2c(=O)n(Cc3ccc(-c4nnc(C(F)F)o4)cc3F)c3ccccc32)C1 (centres unmarked) [Compound 20, 1-(4-(5-(difluoromethyl)-1,3,4-oxadiazole-2-yl)-2-fluorobenzyl)-3-(1-methylpyrrolidine-3-yl)-1,3-dihydro-2H-benzo[d]imidazole-2-one]	6.55	< 5.00
O=c1n(Cc2ccc(-c3nnc(C(F)F)o3)cc2F)c2ccccc2n1C1CCN(C2COC2)C1 (centres unmarked) [Compound 21, 1-(4-(5-(difluoromethyl)-1,3,4-oxadiazole-2-yl)-2-fluorobenzyl)-3-(1-(oxetan-3-yl)pyrrolidine-3-yl)-1,3-dihydro-2H-benzo[d]imidazole-2-one]	6.52	< 5.00
CN1CC(n2c(=O)n(Cc3ccc(-c4nnc(C(F)F)o4)cc3F)c3ccccc32)C1 [Compound 22, 1-(4-(5-(difluoromethyl)-1,3,4-oxadiazole-2-yl)-2-fluorobenzyl)-3-(1-methylazetidine-3-yl)-1,3-dihydro-2H-benzo[d]imidazole-2-one]	6.96	< 5.00
O=c1n(Cc2ccc(-c3nnc(C(F)F)o3)cc2F)c2ccccc2n1C1CN(C2COC2)C1 [Compound 23, 1-(4-(5-(difluoromethyl)-1,3,4-oxadiazole-2-yl)-2-fluorobenzyl)-3-(1-(oxetan-3-yl)azetidine-3-yl)-1,3-dihydro-2H-benzo[d]imidazole-2-one]	6.62	< 5.00
O=c1n(CCN2CC3(COC3)C2)c2ccccc2n1Cc1ccc(-c2nnc(C(F)F)o2)cc1F [Compound 24]	6.86	< 5.00
O=c1n(CCN2CC3(COC3)C2)c2ccccc2n1Cc1ccc(-c2nnc(C(F)F)o2)cn1 [Compound 25, 1-(2-(2-oxa-6-azaspiro[3.3]heptane-6-yl)ethyl)-3-((5-(5-(difluoromethyl)-1,3,4-oxadiazole-2-yl)pyridine-2-yl)methyl)-1,3-dihydro-2H-benzo[d]imidazole-2-one]	7.08	< 5.00
O=c1n(CCN2CC3(COC3)C2)c2ccccc2n1Cc1ccc(-c2nnc(C(F)F)o2)cc1 [Compound 26, 1-(2-(2-oxa-6-azaspiro[3.3]heptane-6-yl)ethyl)-3-(4-(5-(difluoromethyl)-1,3,4-oxadiazole-2-yl)benzyl)-1,3-dihydro-2H-benzo[d]imidazole-2-one]	6.68	< 5.00
O=c1n(Cc2ccc(-c3nnc(C(F)F)o3)cc2F)c2ccccc2n1C1CC2(COC2)C1 [Compound 27, 1-(4-(5-(difluoromethyl)-1,3,4-oxadiazole-2-yl)-2-fluorobenzyl)-3-(2-oxaspiro[3.3]heptane-6-yl)-1,3-dihydro-2H-benzo[d]imidazole-2-one]	6.96	< 5.00
O=c1n(Cc2ccc(-c3nnc(C(F)F)o3)cn2)c2ccccc2n1C1CC2(COC2)C1 [Compound 28, 1-((5-(5-(difluoromethyl)-1,3,4-oxadiazole-2-yl)pyridine-2-yl)methyl)-3-(2-oxaspiro[3.3]heptane-6-yl)-1,3-dihydro-2H-benzo[d]imidazole-2-one]	7.19	< 5.00
O=c1n(Cc2ccc(-c3nnc(C(F)F)o3)cc2)c2ccccc2n1C1CC2(COC2)C1 [Compound 29, 1-(4-(5-(difluoromethyl)-1,3,4-oxadiazole-2-yl)benzyl)-3-(2-oxaspiro[3.3]heptane-6-yl)-1,3-dihydro-2H-benzo[d]imidazole-2-one]	6.68	< 5.00
COCCN1Cc2ccccc2N(Cc2ccc(-c3nnc(C(F)F)o3)cc2)C1=O [Compound 30, 1-(4-(5-(difluoromethyl)-1,3,4-oxadiazole-2-yl)benzyl)-3-(2-methoxyethyl)-3,4-dihydro quinazoline-2(1H)-one]	6.35	< 5.00
COCCN1Cc2ccccc2N(Cc2ccc(-c3nnc(C(F)F)o3)cn2)C1=O [Compound 31, 1-((5-(5-(difluoromethyl)-1,3,4-oxadiazole-2-yl)pyridine-2-yl)methyl)-3-(2-methoxyethyl)-3,4-dihydroquinazoline-2(1H)-one]	6.97	< 5.00
CN1CC(N2Cc3ccccc3N(Cc3ccc(-c4nnc(C(F)F)o4)cc3F)C2=O)C1 [Compound 32, 1-(4-(5-(difluoromethyl)-1,3,4-oxadiazole-2-yl)-2-fluorobenzyl)-3-(1-methylazetidine-3-yl)-3,4-dihydroquinazoline-2(1H)-one]	6.64	< 5.00
CN1CCC(N2Cc3ccccc3N(Cc3ccc(-c4nnc(C(F)F)o4)cc3F)C2=O)CC1 [Compound 33, 1-(4-(5-(difluoromethyl)-1,3,4-oxadiazole-2-yl)-2-fluorobenzyl)-3-(1-methylpiperidine-4-yl)-3,4-dihydroquinazoline-2(1H)-one]	6.77	< 5.00
O=c1n(Cc2ccc(-c3nnc(C(F)F)o3)cc2F)c2ccccc2n1C1CCOCC1 [Compound 34, 1-(4-(5-(difluoromethyl)-1,3,4-oxadiazole-2-yl)-2-fluorobenzyl)-3-(tetrahydro-2H-pyran-4-yl)-1,3-dihydro-2H-benzo[d]imidazole-2-one]	6.63	< 5.00
